We go through five molecules from ChEMBL document CHEMBL1137606, “Synthesis of novel phytosphingosine derivatives and their preliminary biological evaluation for enhancing radiation therapy” (2007).

Calls of active or inactive are those of the source. The calls are words filed in the database; no cut-off is given here.

For assay [1], the system named is Jurkat. Briefly: Cytotoxicity against gamma irradiated human Jurkat cells at 10 uM after 30 mins relative to control. It counts as functional.
The test system of assay [2] is Jurkat. Briefly: Cytotoxicity against human Jurkat cells at 10 uM after 30 mins. In kind it is functional, cell-based.

In the assay on Jurkat [1], `CCCCCCCCCCCCCC[C@@H](O)[C@@H](O)[C@H](CO)NC(=O)COCc1ccccc1` had an Activity of 11%.

On to `CCCCCCCCCCCCCC[C@@H](O)[C@@H](O)[C@H](CO)NC(=O)CCCCCCCCC(=O)OC`, for which the outcome with Jurkat [1] was inactive. Besides, in the assay on Jurkat [2], the result was Active.

As to `CCCCCCCCCCCCCC[C@@H](O)[C@@H](O)[C@H](CO)NC(=O)CCCC(=O)OCC`, the Activity in the assay on Jurkat [1] is reported as 19%.

Regarding `CCCCCCCCCCCCCC[C@@H](O)[C@@H](O)[C@@H](N)CO`, the outcome with Jurkat [1] was inactive. In addition, the result in the assay on Jurkat [2] was Active.

As to `CCCCCCCCCCCCCC[C@@H](O)[C@@H](O)[C@H](CO)NC(=O)CCC(=O)OCC`, the Activity with Jurkat [1] turned out to be 12%.
